Source: article PMC9696309 (Metabolites, 2022)
Where two headings read alike, the source gives them in different places.

Key:
in vitro = settings: African green monkey
SARS-CoV-2 = test: microbe, parasite or virus in culture; type: cell-based
[1] = test system: severe acute RS-CoV 3CL^pr°; settings: inhibition of severe acute RS-CoV 3CL^pr° activity; cited from earlier work

SMILES | CC50 (in vitro) | IC50 (SARS-CoV-2) | IC50 (SARS-CoV-2; Severe acute respiratory syndrome coronavirus 2) | IC50 [1]
COc1c(O)cc2oc(-c3ccc(O)cc3)c(OC)c(=O)c2c1O [Compound 7, 5,7,4’-trihydroxy-3,6-dimethoxy flavone] | 1070 µM | 664 µM | 664 µM | 
O=c1cc(-c2ccc(O)cc2)oc2cc(O)cc(O)c12 [apigenin] |  |  |  | 281 µM
CC[C@H](CC[C@@H](C)[C@H]1CC[C@H]2[C@@H]3CC=C4C[C@@H](O[C@@H]5O[C@H](CO)[C@@H](O)[C@H](O)[C@H]5O)CC[C@]4(C)[C@H]3CC[C@]12C)C(C)C [Compound 9, daucosterol] | 2550 µM |  |  | 
COc1ccc(-c2coc3cc(O)ccc3c2=O)cc1 [Compound 3, formononetin] | 1720 µM |  |  | 
O=c1cc(-c2ccc(O)c(O)c2)oc2cc(O)cc(O)c12 [luteolin] |  |  |  | 20.2 µM
